Columns and labels:
A431 cells = assay: Lactate dehydrogenase (LDH) release assay; assay type: cell-based, human; conditions: 300 μM and 500 μM
Method: (§1) A431 (human epidermoid carcinoma), MM649 (human melanoma), B16-OVA (B16-F10 mouse melanoma cell line stably transfected with chicken ovalbumin), MM415 (human melanoma) and FaDu (human hypopharyngeal carcinoma) cells were cultured in RPMI-1640, 10% FCS (complete medium) at 37° C., 5% CO2 in a humidified incubator. All cell lines used in this study were confirmed as mycoplasma negative using MycoAlert (Lonza). STR profiling was also performed to confirm the identity of the human cell lines used.
(§2) Measuring the release of LDH is a well-recognised assay to assess plasma membrane permeabilisation and detect cell death by necrosis (Chan et al. 2013). Three cell lines (A431, MM649 and B16-OVA) were used in these assays. Cells were plated at a density of 10,000 cells per well into clear 96-well plates (Corning, #3595; 100 μl of complete media) and the resultant plates incubated overnight as previously detailed. The following day, media was aspirated from each well and 50 μl of fresh medium was inserted. Stock solutions of Compound 1 were diluted to 2× final assay concentrations (1 mM and 600 μM) and 50 μl of these dilutions added to the required wells. […] OD490 nm and OD690 nm readings were recorded for each sample using a Hybrid Synergy H4 plate reader. Absorbance readings from drug treated samples were normalized to detergent treated controls to determine the % LDH release per well.

MM649 cells = assay: Lactate dehydrogenase (LDH) release assay; assay type: cell-based, human; conditions: 300 μM and 500 μM
Method: as §1, §2

B16-OVA cells [1] = assay: HMGB1 release assay (ELISA); assay type: cell-based, mouse; conditions: 120 minutes
Method: as §1, with “melanoma) and” for “melanoma),”, “ovalbumin)” for “ovalbumin), MM415 (human melanoma) and FaDu (human hypopharyngeal carcinoma) cells”, “incubator. BMDCs were cultured in R10 media (RPMI, 10% FCS, 2 mM glutamine, 50 μM beta-mercaptoethanol, Pen/Strep).” for “incubator.”
Cell lines (A431, MM649 and B16-OVA) were plated into T75 cm^2 flasks (Nunc) in 10 ml of complete media and cultured at 37° C., 5% CO2 until they reached 90% confluency. Compounds 1, 2, 3 and 4 were diluted in 5 ml of identical media to a final concentration of 500 and 300 μM and then administered to the cells. Several flasks were prepared such that a kinetic curve of HMGB1 release in response to drug treatment could be established. Ethanol only controls were also generated. At the required timepoint, media was removed from the flask into a 10 ml polypropylene tube that was placed on ice for 5 mins. […] OD450 nm values were determined using a Hybrid Synergy H4 plate reader (BioTek). Absorbance values from drug treated samples were normalized to vehicle treated samples to determine the fold increase in HMGB1 release in response to epoxytigliane treatment.

B16-OVA cells [2] = assay: Calreticulin externalization assay (flow cytometry); assay type: cell-based, mouse; conditions: within 60 minutes of treatment
Method: Calreticulin externalization was determined as previously detailed (Gomez-Cadena et al. 2016). Briefly, cells (A431, MM649, B16-OVA) cultured in complete medium at 37° C., 5% CO2 were detached via trypsinisation, centrifuged at 1,200 rpm and washed ×2 with fresh medium. After an additional round of centrifugation, the resultant cell pellet was resuspended at a concentration of 1×10^6 cells/ml, after which epoxytigliane was added to a final concentration of 500 or 300 μM. Ethanol only controls were also performed. Cell suspensions were incubated at 37° C., 5% CO2 and at the indicated timepoints, 200 μl of sample was removed and incubated with LIVE/DEAD fixable far red stain for 5 mins on ice. Following this, cells were pelleted at 1,200 rpm for 4 mins and washed ×1 with PBS. 500 μl of PBS, 0.25% formaldehyde was then added to each pellet to perform a light fixation without compromising plasma membrane integrity. […]
Samples were gated by FSC-H v FSC-A first to identify single cells, after which the LIVE/DEAD stain (Ex: 640 nm, Em: 670/14) negative (intact cell) population was analysed for green fluorescence (Ex: 488 nm, Em: 530/30; calreticulin externalization). Mean fluorescence intensity values were subsequently determined and graphed versus time.

## C/C=C(\C)C(=O)O[C@@H]1[C@@H](C)[C@@]2(O)[C@H]([C@@H]3C(C)(C)[C@]13OC(=O)[C@@H](C)CC)[C@@H]1O[C@]1(CO)[C@@H](O)[C@]1(O)C(=O)C(C)=C[C@H]12 [Compound 1, 12-tigloyl-13-(2-methylbutanoyl)-6,7-epoxy-4,5,9,12,13,20-hexahydroxy-1-tiglien-3-one]
A431 cells
  LDH release compared to the controls: significant release of LDH
MM649 cells
  LDH release compared to the controls: significant release of LDH
B16-OVA cells [1]
  fold increase in HMBG1 release, normalised to vehicle treated cells: greater than 3 fold
B16-OVA cells [2]
  calreticulin externalisation (mean fluorescence intensity): significant increases in mean fluorescence intensity
